The numbers were not newly measured in patent US20250248986A1, “ANTIFUNGAL DRUG INHALATION FORMULATIONS” (priority 2024, published 2025), which cites them from elsewhere.

Like-named read-outs stand apart in the source and are kept apart here.

`CC[C@@H]([C@H](C)O)n1ncn(-c2ccc(N3CCN(c4ccc(OC[C@@H]5CO[C@@](Cn6cncn6)(c6ccc(F)cc6F)C5)cc4)CC3)cc2)c1=O` [Posaconazole]: the “solubility of the free base” value (pH of about 6.4 or higher) was “less than 1 μg/ml”. For the compound `CCC(C)n1ncn(-c2ccc(N3CCN(c4ccc(OCC5COC(Cn6cncn6)(c6ccc(Cl)cc6Cl)O5)cc4)CC3)cc2)c1=O` (racemic) [Itraconazole], the water solubility result is given as “about 1 ng/ml” (neutral conditions) and “about 1 μg/ml” (pH 1).
